Values after ≈ are worked out from the molar mass of the structure shown.
Assay: Solubility of ibuprofen in simulated salivary fluid (excess ibuprofen, sonication, centrifugation, HPLC)
Type: physicochemical
Settings: fassgf or other biorelevant, thermodynamic from solid, simulated salivary fluid (19 mM phosphate buffer, 150 mM sodium chloride, pH 6.75), sonicated approximately 1 hour, centrifuged
Method: In addition, solubility of ibuprofen was evaluated by adding an excess of ibuprofen to simulated salivary fluid and sonicating for approximately 1 hour. The solution was then centrifuged and injected onto the HPLC.

solubility: 1800 µg/mL (≈ 8.73 mM)
SMILES: CC(C)Cc1ccc(C(C)C(=O)O)cc1 (stereo not shown) [ibuprofen, 2-(p-isobutylphenyl)propionic acid]

Source: patent publication US20130261188A1, “Ibuprofen Solid Oral Dosage Composition Comprising a Methacrylic Acid Copolymer” (TEIKOKU PHARMA USA, INC., priority 2012, published 2013)
